Measurements reported in patent publication US9593149B2, “Amylin and calcitonin receptor agonist” (Novo Nordisk A/S, priority 2014, dated 2017).
Values after ≈ are worked out from the molar mass of the structure shown. Numbered stars: 1 amine (or outer) side, 2 acyl side, 3 side chain; on linkers, the order of the positions; unused ones are H or OH. Side chains are listed from the residue outwards. Peptide text beside a SMILES is read from it. * marks the point of attachment. C20 diacid = O=C(O)CCCCCCCCCCCCCCCCCCC(=O)*; C18 diacid = O=C(O)CCCCCCCCCCCCCCCCC(=O)*; γGlu = O=C(O)[C@H](CCC(=O)[*:2])N[*:1]

Tests used:
[1] = molecular target: T1, human amylin receptor (human calcitonin receptor + human RAMP3), BHK tk'ts 13 cells (Homo sapiens, UniProt O60896+P30988); test: Assay (Va) binding to the human amylin receptor (whole cell); details: read-out: hAmylin-R binding IC50
T1 construct: expressed in transfected cells; host or cells: BHK tk'ts 13
T1 sequence (O60896 24-148, one chain of several): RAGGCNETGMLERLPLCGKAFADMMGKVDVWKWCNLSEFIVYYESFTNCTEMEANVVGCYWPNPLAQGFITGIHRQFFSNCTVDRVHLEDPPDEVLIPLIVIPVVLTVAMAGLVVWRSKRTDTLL
Experimental: The day before the assay the cells were Seeded into Poly-D-Lysin coated 384W Opaque White, BD BioCoat plates (10000 cells/well) and Incubated overnight at 37° C., 5% CO2, 95% humidity.

[2] = molecular target: T2, human calcitonin (a) receptor, BHK570 cells (Homo sapiens, UniProt P30988); test: Assay (II)b functional CRE-luciferase assay without albumin, human calcitonin receptor; format: cell-based; details: Tested without HSA; read-out: hCTR funct. EC50
T2 construct: host or cells: BHK570
T2 sequence (P30988 25-474): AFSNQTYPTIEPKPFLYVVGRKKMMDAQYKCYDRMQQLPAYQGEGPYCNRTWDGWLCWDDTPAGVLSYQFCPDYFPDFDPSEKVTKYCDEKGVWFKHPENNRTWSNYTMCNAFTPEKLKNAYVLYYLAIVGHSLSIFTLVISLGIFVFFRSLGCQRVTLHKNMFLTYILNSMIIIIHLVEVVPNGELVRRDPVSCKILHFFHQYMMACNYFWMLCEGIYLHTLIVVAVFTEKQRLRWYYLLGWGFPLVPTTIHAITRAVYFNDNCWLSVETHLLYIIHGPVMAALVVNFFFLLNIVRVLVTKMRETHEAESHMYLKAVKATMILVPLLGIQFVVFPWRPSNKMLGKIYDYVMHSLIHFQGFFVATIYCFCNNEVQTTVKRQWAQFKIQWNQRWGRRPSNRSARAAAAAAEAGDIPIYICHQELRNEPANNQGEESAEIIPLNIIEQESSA
How it was run: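 BHK570 cells stably expressing human calcitonin receptor with CRE-luciferase reporter, plus RAMP-3 for the amylin 3(a) line. Cells stimulated 3 hours at 37 °C in albumin-free assay medium (0.1% ovalbumin, 10 mM Hepes pH 7.4); cAMP-driven luciferase read by luminescence.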

[3] = Assay (IV) determination of solubility; format: physicochemical
Experimental: Assay (IV)—Determination of Solubility
The mimylin peptide was dissolved in water at ˜500 nmol/ml and mixed 1:1 with a series of buffers (100 mM glycylglycine pH 3.0, 100 mM glycylglycine pH 4.0, 100 mM glycylglycine pH 5.0, 100 mM bistrispropane pH 6.0, 100 mM bistrispropane pH 6.5, 100 mM bistrispropane pH 7.0, 100 mM bistrispropane pH 7.5, 100 mM bistrispropane pH 8.0).

[4] = molecular target: T3, human calcitonin receptor (Homo sapiens, UniProt P30988); test: Assay (VII) binding to the human calcitonin receptor (membrane, SPA); details: membranes, 125I-Calcitonin; read-out: hCT-R binding IC50
T3 construct: expressed in transfected cells; host or cells: BHK tk'ts 13
T3 sequence (P30988 25-474): T2 sequence (P30988 25-474)
Experimental: Assay (VII)—Determination of Binding to the Human Calcitonin Receptor (Membrane)
The binding assay was performed using scintillation proximity assay (SPA) beads (RPNQ0001) from PerkinElmer® and cell membranes prepared from a BHK tk'ts 13 cell line was stably transfected with the human calcitonin receptor and a CRE-responsive luciferase reporter gene. Membranes were prepared in the following way; the cells were rinsed with PBS and incubated with Versene for approximately 5 min before harvesting. The cells were flushed with PBS and the cell-suspension was centrifuged for 5 min at 1000 rpm. Cells were homogenized in a buffer containing 20 mM Na-HEPES and 10 mM EDTA (pH 7.4) and centrifuged at 20.000 rpm for 15 min. The resulting pellet was resuspended, homogenized and centrifuged (20.000 rpm, 15 min) in a buffer containing 20 mM Na-HEPES and 0.1 mM EDTA (pH 7.4, buffer 2). The resulting pellet was resuspended in buffer 2 and protein concentration was tested (BCA protein Assay, Pierce). The homogenate was kept cold during the whole procedure. The membranes were kept at −80° C. until use. Assay was performed in a 384 well Optiplate (PerkinElmer®) in a total volume of 40 ul. Membranes were mixed with SPA beads. Final concentration of membranes 35 ng/μL final and Final concentration of SPA beads was 0.05 mg/well. Test-compounds were dissolved in DMSO and further diluted in assay buffer (50 mM Hepes, pH 7.4, 1 mM CaCl2, 5 mM MgCl2, 0.1% OA and 0.02% Tween20). Radioligand ^125I-Calcitonin was dissolved in assay buffer and added to the Optiplate at a final concentration of 75 pM/well (approx. 30.000 cpm/10 ul). The final mixture was incubated for 120 min with shaking at 400 rpm at 25° C. prior to centrifugation (1500 rpm, 10 min). Samples were analyzed on TopCounter™ (Packard). The IC50 was calculated using (one site binding competition analysis) GraphPad Prism5 as a measure of receptor affinity.

SMILES: CC(C)C[C@H](NC(=O)[C@H](C)NC(=O)[C@H](C)NC(=O)[C@@H](NC(=O)[C@H](CO)NC(=O)[C@H](CC(C)C)NC(=O)[C@H](CCC(=O)O)NC(=O)[C@H](CO)NC(=O)[C@H](C)NC(=O)[C@H](C)NC(=O)CC[C@H](NC(=O)CCCCCCCCCCCCCCCCCCC(=O)O)C(=O)O)[C@@H](C)O)C(=O)NCC(=O)N[C@@H](CCCNC(=N)N)C(=O)N[C@@H](CC(C)C)C(=O)N[C@@H](CO)C(=O)N[C@@H](C)C(=O)N[C@@H](CCC(=O)O)C(=O)N[C@@H](CC(C)C)C(=O)N[C@@H](Cc1c[nH]cn1)C(=O)N[C@@H](CCC(=O)O)C(=O)N[C@@H](CC(C)C)C(=O)N[C@@H](C)C(=O)N[C@H](C(=O)N[C@@H](Cc1ccc(O)cc1)C(=O)N1CCC[C@H]1C(=O)N[C@@H](CCCNC(=N)N)C(=O)N[C@H](C(=O)N[C@@H](CCC(=O)O)C(=O)N[C@H](C(=O)NCC(=O)N[C@@H](CO)C(=O)NCC(=O)N[C@@H](CO)C(=O)N1CCC[C@H]1C(N)=O)[C@@H](C)O)[C@@H](C)O)[C@@H](C)O [compound 57, [N-terminal(C20 diacid-gGlu), 1A, 23Y, 30S, 31G]mimylin] ({C20 diacid-γGlu}-AASELSTAALGRLSAELHELATYPRTETGSGSP-NH2)
- IC50 [1]: 1.23 nM
- EC50 [2]: 0.022 nM
- solubility at 18 h ([3]; bistrispropane buffer, pH 6.5): ≥ 200 µM
- solubility at 18 h ([3]; bistrispropane buffer, pH 7.5): ≥ 200 µM
- solubility at 18 h ([3]; bistrispropane buffer, pH 6.0): ≥ 200 µM
- solubility at 18 h ([3]; bistrispropane buffer, pH 7.0): ≥ 200 µM
- solubility at 18 h ([3]; bistrispropane buffer, pH 8.0): ≥ 200 µM
- solubility at 18 h ([3]; glycylglycine buffer, pH 3.0): ≥ 200 µM
- solubility at 18 h ([3]; glycylglycine buffer, pH 4.0): ≥ 200 µM
- solubility at 18 h ([3]; glycylglycine buffer, pH 5.0): ≥ 200 µM
- IC50 [4]: 0.108 nM

SMILES: CC(C)C[C@H](NC(=O)[C@H](C)NC(=O)[C@H](C)NC(=O)[C@@H](NC(=O)[C@H](CO)NC(=O)[C@H](CC(C)C)NC(=O)[C@H](CCC(=O)O)NC(=O)[C@H](CO)NC(=O)[C@H](C)NC(=O)[C@H](CCC(=O)O)NC(=O)CCCCCCCCCCCCCCCCC(=O)O)[C@@H](C)O)C(=O)NCC(=O)N[C@@H](CCCNC(=N)N)C(=O)N[C@@H](CC(C)C)C(=O)N[C@@H](CO)C(=O)N[C@@H](C)C(=O)N[C@@H](CCC(=O)O)C(=O)N[C@@H](CC(C)C)C(=O)N[C@@H](Cc1cnc[nH]1)C(=O)N[C@@H](CCC(=O)O)C(=O)N[C@@H](CC(C)C)C(=O)N[C@@H](C)C(=O)N[C@H](C(=O)N[C@@H](CC(C)C)C(=O)N1CCC[C@H]1C(=O)N[C@@H](CCCNC(=N)N)C(=O)N[C@H](C(=O)N[C@@H](CCC(=O)O)C(=O)N[C@H](C(=O)NCC(=O)N1CCC[C@H]1C(=O)N[C@@H](CCC(=O)O)C(=O)N[C@@H](CO)C(=O)N1CCC[C@H]1C(N)=O)[C@@H](C)O)[C@@H](C)O)[C@@H](C)O [Ex. #2, [N-terminal(C18 diacid)]mimylin] ({C18 diacid}-EASELSTAALGRLSAELHELATLPRTETGPESP-NH2)
- Solubility ([3]; pH 3.0): ≧200 μM
- Solubility ([3]; pH 4.0): ≧200 μM
- Solubility ([3]; pH 5.0): ≧200 μM
- Solubility ([3]; pH 6.0): ≧200 μM
- Solubility ([3]; pH 6.5): ≧200 μM
- Solubility ([3]; pH 7.0): ≧200 μM
- Solubility ([3]; pH 7.5): ≧200 μM
- Solubility ([3]; pH 8.0): ≧200 μM

SMILES: CC(C)C[C@H](NC(=O)[C@H](CCCNC(=N)N)NC(=O)CNC(=O)[C@H](CC(C)C)NC(=O)[C@@H](NC(=O)[C@H](C)NC(=O)[C@@H](NC(=O)[C@H](CO)NC(=O)[C@H](CC(C)C)NC(=O)[C@H](CCC(=O)O)NC(=O)[C@H](CO)NC(=O)[C@H](C)NC(=O)CC[C@H](NC(=O)CCCCCCCCCCCCCCCCCCC(=O)O)C(=O)O)[C@@H](C)O)C(C)C)C(=O)N[C@@H](CO)C(=O)N[C@@H](CCC(N)=O)C(=O)N[C@@H](CCC(=O)O)C(=O)N[C@@H](CC(C)C)C(=O)N[C@@H](Cc1c[nH]cn1)C(=O)N[C@@H](CCC(=O)O)C(=O)N[C@@H](CC(C)C)C(=O)N[C@@H](CCC(N)=O)C(=O)N[C@H](C(=O)N[C@@H](Cc1ccc(O)cc1)C(=O)N1CCC[C@H]1C(=O)N[C@@H](CCCNC(=N)N)C(=O)N[C@H](C(=O)N[C@@H](CCC(=O)O)C(=O)N[C@H](C(=O)NCC(=O)N[C@@H](CO)C(=O)NCC(=O)N[C@H](C(=O)N[C@@H](Cc1ccc(O)cc1)C(N)=O)[C@@H](C)O)[C@@H](C)O)[C@@H](C)O)[C@@H](C)O [compound 114, [N-terminal(C20 diacid-gGlu), des1, 9V, 15Q, 21Q, 23Y, 30S, 31G, 32T, 33Y]mimylin]
- IC50 [1]: 0.278 nM
- solubility at 18 h ([3]; bistrispropane buffer, pH 6.5): ≥ 200 µM
- solubility at 18 h ([3]; bistrispropane buffer, pH 7.5): ≥ 200 µM
- solubility at 18 h ([3]; bistrispropane buffer, pH 6.0): ≥ 200 µM
- solubility at 18 h ([3]; bistrispropane buffer, pH 7.0): ≥ 200 µM
- solubility at 18 h ([3]; bistrispropane buffer, pH 8.0): ≥ 200 µM
- solubility at 18 h ([3]; glycylglycine buffer, pH 3.0): ≥ 200 µM
- solubility at 18 h ([3]; glycylglycine buffer, pH 4.0): 65 µM (≈ 257 µg/mL)
- solubility at 18 h ([3]; glycylglycine buffer, pH 5.0): 7 µM (≈ 27.6 µg/mL)
- IC50 [4]: 0.085 nM

SMILES: CC(=O)N[C@@H](C)C(=O)N[C@@H](CO)C(=O)N[C@@H](CCCCNC(=O)CC[C@H](NC(=O)CCCCCCCCCCCCCCCCCCC(=O)O)C(=O)O)C(=O)N[C@@H](CC(C)C)C(=O)N[C@@H](CO)C(=O)N[C@H](C(=O)N[C@@H](C)C(=O)N[C@@H](C)C(=O)N[C@@H](CC(C)C)C(=O)NCC(=O)N[C@@H](CCCNC(=N)N)C(=O)N[C@@H](CC(C)C)C(=O)N[C@@H](CO)C(=O)N[C@@H](C)C(=O)N[C@@H](CCC(=O)O)C(=O)N[C@@H](CC(C)C)C(=O)N[C@@H](Cc1c[nH]cn1)C(=O)N[C@@H](CCC(=O)O)C(=O)N[C@@H](CC(C)C)C(=O)N[C@@H](C)C(=O)N[C@H](C(=O)N[C@@H](CC(C)C)C(=O)N1CCC[C@H]1C(=O)N[C@@H](CCCNC(=N)N)C(=O)N[C@H](C(=O)N[C@@H](CCC(=O)O)C(=O)N[C@H](C(=O)NCC(=O)N[C@@H](CO)C(=O)NCC(=O)N[C@@H](CO)C(=O)N1CCC[C@H]1C(N)=O)[C@@H](C)O)[C@@H](C)O)[C@@H](C)O)[C@@H](C)O [compound 68, [N-terminal(acetyl), des1, 4K(C20 diacid-gGlu), 30S, 31G]mimylin] (Ac-ASK([γGlu-C20 diacid])LSTAALGRLSAELHELATLPRTETGSGSP-NH2)
- EC50 [2]: 0.027 nM
- solubility at 18 h ([3]; bistrispropane buffer, pH 6.5): ≥ 200 µM
- solubility at 18 h ([3]; bistrispropane buffer, pH 7.5): ≥ 200 µM
- solubility at 18 h ([3]; bistrispropane buffer, pH 6.0): ≥ 200 µM
- solubility at 18 h ([3]; bistrispropane buffer, pH 7.0): ≥ 200 µM
- solubility at 18 h ([3]; bistrispropane buffer, pH 8.0): ≥ 200 µM
- solubility at 18 h ([3]; glycylglycine buffer, pH 3.0): ≥ 200 µM
- solubility at 18 h ([3]; glycylglycine buffer, pH 4.0): ≥ 200 µM
- solubility at 18 h ([3]; glycylglycine buffer, pH 5.0): ≥ 200 µM
- IC50 [4]: 0.01 nM
